Experimental data from ChEMBL document CHEMBL1141353, “Three biscembranoids and their monomeric counterpart cembranoid, a biogenetic Diels-Alder precursor, from the soft coral Sarcophyton elegans” (J Nat Prod, 2007).
Active and inactive are the calls of the source. No cut-off for these calls is given here.

Columns and labels:
[1] = Toxicity in brine shrimp assessed as survival rate after 24 hrs; format: organism-based; conditions: artemia salina, in vivo
Escherichia coli = assay: Antibacterial activity against Escherichia coli at 1.5 ug/ml; format: functional, organism-based

In the case of `COC(=O)/C1=C/C(=O)C[C@@H](C)CCC[C@@H](C)C(=O)C[C@@H](C(C)C)C(=O)C1` [METHYL TETRAHYDROSARCOATE], the LC50 at 24 h [1] is reported as 1500 nM.
In the case of `COC(=O)[C@]12CC(=O)[C@H](C(C)C)CC(=O)[C@H](C)CCC[C@H](C)CC(=O)[C@H]1CC(C)=C1C[C@H](O)[C@@]3(C)O[C@@H](CC/C(C)=C/[C@@H]12)[C@@]1(C)CC[C@@H]3O1`, the Activity (Escherichia coli) is reported as “Active”.
With `COC(=O)[C@]12CC(=O)[C@H](C(C)C)CC(=O)[C@H](C)CCC[C@H](C)CC(=O)[C@H]1CC(C)=C1C[C@H](O)[C@]3(C)O[C@@H]3CC[C@]3(C)O[C@@H]3CC/C(C)=C/[C@@H]12` [DIEPOXYNYALOLIDE] the LC50 at 24 h [1] was 1500 nM.
